Test results taken from patent US20240050601A1, “COMPOSITIONS AND ASSOCIATED METHODS FOR SUSTAINED-RELEASE OF RADIOACTIVE AGENTS AND THEIR APPLICATIONS” (priority 2020, published 2024).

Key:
[1] = tested on: myeloproliferative neoplasms (MPNs); details: low dose range (5-7 mCi per intravenous injection, total up to 4 injections); cited from earlier work
in vivo = details: Balb/C, mouse
Experimental: The hydrogel was prepared, kept in a 4° C. refrigerator overnight ensuring a complete mixing, and balanced to ambient temperature prior to the administration. The molecular weight of ICG is 775 Da, which was used here as an example of small molecule. Two animal groups with different route of subcutaneous (s.c.) or intramuscular (i.m.) injection was assessed with an injection volume of 500 μl or 50 μl, respectively. The imaging was conducted for the animals immediately after hydrogel administration (within 1 minute), and then at predetermined time points of post injection.

O=[32P](O)(O)O [phosphate P-32]
tolerability and efficacy in MPNs [1]: well-tolerated and efficacious

CC1(C)C(/C=C/C=C/C=C/C=C2\N(CCCCS(=O)(=O)O)c3ccc4ccccc4c3C2(C)C)=[N+](CCCCS(=O)(=O)[O-])c2ccc3ccccc3c21 [TCG, indocyanine green]
half-life (in vivo; im, 50 μl): ~4 h | half-life (in vivo; sc, 500 μl): ~24 h
